This note sets out measurements from patent US20230059487A1, “PHOTOSENSITIVE MATERIAL, TRANSFER FILM, MANUFACTURING METHOD OF CIRCUIT WIRING, MANUFACTURING METHOD OF TOUCH PANEL, AND PATTERN FORMING METHOD” (FUJIFILM Corporation, priority 2020, published 2023).

Data set [1] in a line: Measurement of molar absorption coefficients ε365, ε313 and ε365/ε313 in acetonitrile. The format is physicochemical. An excerpt:
(Measurement and Evaluation of ε365 and ε365/ε313)
The ε365 and ε313 of the compound β are molar absorption coefficients measured by dissolving the compound β in acetonitrile. In a case where the compound β was insoluble in acetonitrile, a solvent for dissolving the compound β may be appropriately changed.

Data set [2] in a line: Measurement of pKa of compound β in ground state (acid titration). The format is physicochemical. An excerpt: (Measurement of pKa of Compound β in Ground State)
Where [3] appears, read: molar absorption coefficient at 365 nm in acetonitrile.

Read-outs that look alike come from different tables or passages of the source. Where only a bound is given, the exact number is not on record here.

Turning to `Cc1cc(C)c2c(C)cc(C)nc2c1` [2,4,5,7-Tetramethylquinoline], the “ε365 of Compound β” value in data set [1] (setting [3]) is <10 (cm mol/L)^−1.

As for `Cc1cc(C)c2ccccc2n1` [2,4-Dimethylquinolme], the “ε365 of Compound β” value in data set [1] (setting [3]) is reported as <10 (cm mol/L)^−1.

As to `CCCCc1ncc(C)c2ccccc12` [Example 1-n-Butyl-4-methylisoquinoline, 1-n-Butyl-4-methylisoquinoline], the “ε365 of Compound β” value in data set [1] (setting [3]) is reported as <10 (cm mol/L)^−1.

As for `CCCCc1nccc2ccccc12` [Example 1-n-Butylisoquinoline, 1-n-Butylisoquinoline], the “ε365 of Compound β” value in data set [1] (setting [3]) is <10 (cm mol/L)^−1.

Take `Clc1ccccn1` [Example 2-Chloropyridine, 2-Chloropyridine]: the “ε365 of Compound β” value in data set [1] (setting [3]) is <10 (cm mol/L)^−1.

Regarding `COc1cc(C)nc2ccccc12` [Example 2-Methyl-4-methoxyquinoline, 2-Methyl-4-methoxyquinoline], the “ε365 of Compound β” value in data set [1] (setting [3]) is <10 (cm mol/L)^−1.

Consider `Nc1ccncc1` [Example 4-Aminopyridine, 4-Aminopyridine], for which the “ε365 of Compound β” value in data set [1] (setting [3]) is given as <100 (cm mol/L)^−1.

On to `Cc1c2ccccc2nc2ccccc12` [Example 9-Methylacridine, 9-Methylacridine], for which, in data set [1] (setting [3]), the “ε365 of Compound β” value is 6300 (cm mol/L)^−1.

`c1ccc(-c2c3ccccc3nc3ccccc23)cc1` [Example 9-Phenylacridine, 9-Phenylacridine]: the “ε365 of Compound β” value is listed as >10000 in data set [1], >10000 in data set [1] (molar absorption coefficient at 365 nm) and >10000 (cm mol/L)^−1 in data set [1] (setting [3]).

On to `c1ccc2cnccc2c1` [Example B1, isoquinoline], for which the “pKa of Compound β in ground state” value in data set [2] amounted to 4.69; in data set [2] (compound β alone), 4.69; in data set [2] (compound β alone, ground state), 4.69; in data set [2] (compound β in ground state) it was 4.69; in data set [2] (compound β, ground state), 4.69; in data set [2] (ground state), 4.69. Moreover, the “ε365 of Compound β” value in data set [1] (setting [3]) is <10 (cm mol/L)^−1.

For `c1ccc2ncccc2c1` [Example B2, quinoline], the “pKa of Compound β in ground state” value was determined as 4.15 in data set [2]; 4.15 in data set [2] (compound β alone); 4.15 in data set [2] (compound β alone, ground state); 4.15 in data set [2] (compound β in ground state); 4.15 in data set [2] (compound β, ground state); 4.15 in data set [2] (ground state). Further, the “ε365 of Compound β” value in data set [1] (setting [3]) is reported as <10 (cm mol/L)^−1.

Turning to `c1ccc2nc3ccccc3cc2c1` [Example B3, acridine], the “pKa of Compound β in ground state” value in data set [2] was found to be 4.67; in data set [2] (compound β alone), 4.67; in data set [2] (compound β alone, ground state) it was 4.67; in data set [2] (compound β in ground state), 4.67; in data set [2] (compound β, ground state), 4.67; in data set [2] (ground state) it was 4.67. Besides, in data set [1] (setting [3]), the “ε365 of Compound β” value is reported as 4900 (cm mol/L)^−1.

Take `Cc1nccc2ccccc12` [Example B6, 1-Me-isoquinoline]: in data set [1] (setting [3]), the “ε365 of Compound β” value is <10 (cm mol/L)^−1.

In the case of `c1ccncc1` [Example B11, pyridine], the “ε365 of Compound β” value in data set [1] (setting [3]) is on record as <10 (cm mol/L)^−1.

For the compound `Cc1cc(C)c2ccccc2n1` [Example B12, 2,4-dimethylquinoline], the “ε365 of Compound β” value in data set [1] (molar absorption coefficient at 365 nm in acetonitrile, listed as 2,4-Dimethylquinoline) is reported as <10 (cm mol/L)^−1.
